Test results taken from patent US20090092662A1, “LIPOSOME FORMULATIONS OF BORONIC ACID COMPOUNDS” (priority 2007, published 2009).
Read-outs that look alike come from different tables or passages of the source.

Legend:
[1] = ITC drug binding study of complexing reagents to bortezomib; conditions: pH 9.5, 100 mM glycine, 30° C., bortezomib titrated into complexing reagent
Method: The binding of the various complexing reagents to bortazomib were investigated by isothermal titration calorimetry (VP-ITC, MicroCal, Northampton, Mass.) under controlled parameters. […] The pH level was checked twice and adjustments were made as necessary to within 0.2 units. The solutions were degassed for 10-15 min. […] The experiments were conducted at 30° C. […] Data processing to generate the binding parameters was performed using the software program provided by the ITC manufacture (Microcal origin v5.0).

tumor lines = conditions: range of tumor lines, NCI in vitro screen; cited from earlier work
[2] = tested on: human prostate cancer xenograft; conditions: human prostate xenograft model; cited from earlier work
lung cancer xenograft = lung cancer xenograft model; cited from earlier work
[3] = cited from earlier work

Compound `OCC(O)CNCC(O)C(O)C(OC1OC(CO)C(O)C(O)C1O)C(O)CO` (stereo not drawn) [Example 5] has a K [1] of 2366 mol⁻¹.
In the case of `CC(C)C[C@H](NC(=O)[C@H](Cc1ccccc1)NC(=O)c1cnccn1)B(O)O` [bortezomib], the cytotoxicity (tumor lines) is listed as “showed cytotoxicity against a range of tumor lines”, the antitumor activity [2] is listed as “had antitumor activity” and the antitumor activity (lung cancer xenograft) is listed as “had antitumor activity”. For the same compound, the maximum tolerated dose ([3]; intravenous bolus on days 1, 4, 8, and 11 of a 3-week cycle) was 1.56 mg/m^2 and the maximum tolerated dose ([3]; intravenously once or twice weekly, patients with solid tumors) was 1.3 mg/m^2.
